Values quoted from earlier work as cited in patent US8476252B2, “Pharmaceutical emulsion compositions comprising progestogen” (Besins Healthcare Luxembourg SARL, priority 2010, dated 2013).

Tested on: TBI patients
Details: Xiao et al 2008, Wright et al 2007

## CC(=O)[C@H]1CC[C@H]2[C@@H]3CCC4=CC(=O)CC[C@]4(C)[C@H]3CC[C@]12C [progesterone, pregn-4-ene-3,20-dione]
TBI patients
  Safety and tolerability: safe and well tolerated
Administration of progesterone to TBI patients
  Mortality: decreased mortality
